The text below walks through data of patent US20200270588A1, “GLUCOSYL TRANSFERASE POLYPEPTIDES AND METHODS OF USE” (Syngenta Participations AG, priority 2017, published 2020).

Molecules are shown by their SMILES.

Assay type in all cases: biochemical
Test [1] addresses T1, Zea mays bx9 glucosyl transferase (C-terminally his tagged SEQ ID NO: 1) (Zea mays, UniProt B4G072).
T1 construct: His tag (C); made in house; host or cells: E. coli BL21 (DE3), pET24a
T1 sequence (B4G072 1-462): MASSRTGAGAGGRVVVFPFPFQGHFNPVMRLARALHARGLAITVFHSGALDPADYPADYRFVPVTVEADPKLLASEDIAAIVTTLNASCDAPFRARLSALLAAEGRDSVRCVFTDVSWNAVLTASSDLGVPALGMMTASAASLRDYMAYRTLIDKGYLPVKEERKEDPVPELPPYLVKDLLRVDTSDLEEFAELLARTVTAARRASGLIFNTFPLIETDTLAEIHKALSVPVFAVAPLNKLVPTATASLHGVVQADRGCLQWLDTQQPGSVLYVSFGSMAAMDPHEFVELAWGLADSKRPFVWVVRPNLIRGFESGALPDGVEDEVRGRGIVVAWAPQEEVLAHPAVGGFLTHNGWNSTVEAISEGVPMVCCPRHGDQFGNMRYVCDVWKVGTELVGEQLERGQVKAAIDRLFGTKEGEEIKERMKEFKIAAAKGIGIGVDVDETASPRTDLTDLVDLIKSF
The test is described as follows: UDP-Glo glucosyl transferase assay, purified enzyme. To be noted: for Activity: herbicide mM: V 0.300, VI 0.250, VII 0.210, IV, VIII, XI, XXI, XX, XVIII, XVI, XV, XIV 0.200, others 1.000; for kcat: 0.5 mM UDP-glucose, 25 C, pH 7.5, DMSO reagent blank as control. How it is done:
(§1) Glucosyl transferase activity is assayed via measurement of acceptor substrate-dependent production of UDP from ultrapure UDP-glucose using the Promega UDP-Glo™ method and according to the manufacturer's instructions. Assays are run in 96 well microtiter plates.
(§2) Enzyme, typically at a stock concentration of ˜2 mg/ml is diluted to an appropriate concentration in 50 mM K^+ Hepes buffer at pH7.5 containing 0.5 mg/mL bovine serum albumin (BSA) and 5 ul aliquots of this diluted enzyme added to each well of a Perkin Elmer white ½ area 96 well plate. […] Assays are run for an appropriate time (usually 10 to 60 min) so that the amount of UDP formed lies within the most nearly linear part of the UDP standard curve and are stopped with the addition and mixing of 25 ul UDP-Glo™ detection reagent (prepared as described below). Plates are then incubated at room temperature for 60 minutes and then read in a luminescence plate reader (Perkin Elmer Envision 2130 Multilabel Reader). A UDP standard curve is run alongside each set of assays and reagent blank control assays run with DMSO in place of test herbicide. Typically, 300 pmol of UDP corresponds to a Relative Luminescence Unit (RLU) reading of about 1.5E7 and the response curve between 0 and 600 pmol is fitted to a polynomial function (see for example FIG. 2).
(§3) The UDP-Glo™ reagents are made up and used according to the manufacturer's instructions. Thus, Nucleotide Detection Buffer and ATP are combined to make nucleotide detection reagent (NDR) dispensed into aliquots and frozen to be freshly thawed before use.
(§4) Km and kcat values in respect of UDP-glucose are derived by carrying out experiments to measure initial rates over a suitable range of concentrations of UDP glucose out at a fixed near saturating concentration of acceptor substrate. Best fit values of kcat, Km and kcat/Km are obtained by direct fitting of the data to the Michaelis-Menten equation using Graphpad Prism™ software.

The target of test [2] is T2, SEQ ID NO 17, zmBX9 S117V, M279F, A334K mutant (Zea mays, UniProt B4G072, A334K/M279F/S117V).
T2 construct: polypeptides were the C-terminally his-tagged; His tag (C); made in house
Described as above. To be noted: herbicide mM: V 0.300, VI 0.250, VII 0.210; IV, VIII, XI, XXI, XX, XVIII, XVI, XV, XIV 0.200; others 1.000. On the procedure:
as §1, §2, §3, §4
(§5) Variants of C-terminally his tagged SEQ ID No:1 (w/t bx9 from Zea mays), exemplified as SEQ ID 16-30, were cloned, purified and assayed as described in Example 1. FIG. 4 depicts the data from some experiments to determine the kinetic parameters of some of these variants in respect of herbicide VI and table 12 summarizes the estimates of kinetic parameters obtained from further such experiments in respect of a range of herbicides.
(§6) Table 13 summarizes the results obtained from assays, run as described in Example 1, using a variety of alcohol and aminal PSII herbicides as substrates of the Zea mays bx9 w/t (i.e. C-terminally his tagged SEQ ID no 1) and various mutants of the same, selected from SEQ ID NO: 16-30). All of these proteins were C-terminally his-tagged, expressed and purified as described in Example 1. Assays were run and analyzed as described in example 1. It is seen that various of the mutations herein and combinations thereof led to significant improvements (over the w/t bx9 protein) in catalytic activity versus various of the herbicides and that these improvements are often of sufficient magnitude to be useful for conferring improved herbicide tolerance upon crop. This is especially the case given that even the unmutated w/t bx9 enzyme which has only modest glucosyl transferase activity (for example against compounds V and VI) was nevertheless adequately active to confer significant herbicide tolerance in the glass house (as shown in example 9) even without mutational improvement. It is also seen that particular mutations can lead to very much improved activity in respect of some chemistries but not to others but that, overall, there is at least one variant within the scope of the current invention that provides significant and useful improvement in tolerance to each of the chemistries tested.

Test [3] concerns the target T3, SEQ ID NO 21, mutant of Zea mays bx9 glucosyl transferase (Zea mays, UniProt B4G072, A334K/F21Y/L194V/M279F/S117V).
T3 construct: His tag (C); made in house
The description is as above. To be noted: lower block, concentration printed only in upper block: V 0.300, VII 0.210; IV, VIII, XI, XXI, XX, XVIII, XVI, XV, XIV 0.200; others 1.000 mM. How it is done: as §1, §2, §3, §4, §5, §6

For test [4], the target named is T4, SEQ ID NO 22, mutant of Zea mays bx9 glucosyl transferase (Zea mays, UniProt B4G072, A334K/F21Y/M279F/S117V/T220P).
T4 construct: His tag (C); made in house
The test is described as above. To be noted: lower block, concentration printed only in upper block: V 0.300, VII 0.210; IV, VIII, XI, XXI, XX, XVIII, XVI, XV, XIV 0.200; others 1.000 mM. How it is done: as §1, §2, §3, §4, §5, §6

In test [5] the target is T5, SEQ ID NO 18, mutant of Zea mays bx9 glucosyl transferase (Zea mays, UniProt B4G072, A281K/A334K/F21Y/M279F/S117V).
T5 construct: His tag (C); made in house
The test is described as above. To be noted: herbicide mM: V 0.300, VI 0.250, VII 0.210; IV, VIII, XI, XXI, XX, XVIII, XVI, XV, XIV 0.200; others 1.000. How it is done: as §1, §2
(§7) The UDP-Glo™ reagents are made up and used according to the manufacturer's instructions. Thus, Nucleotide Detection Buffer and ATP are combined to make nucleotide detection reagent (NDR) dispensed into aliquots and frozen to be freshly thawed before use. […]
as §6

Test [6] concerns the target T6, SEQ ID NO 19, mutant of Zea mays bx9 glucosyl transferase (Zea mays, UniProt B4G072, A281K/A334K/L194V/M279F/S117V).
T6 construct: His tag (C); made in house
Described as above. The note with it: herbicide mM: V 0.300, VI 0.250, VII 0.210; IV, VIII, XI, XXI, XX, XVIII, XVI, XV, XIV 0.200; others 1.000. On the procedure: as §1, §2, §7, §6

For test [7], the target named is T7, SEQ ID NO 23, mutant of Zea mays bx9 glucosyl transferase (Zea mays, UniProt B4G072, A334K/F21Y/L194C/M279F/S117V).
T7 construct: His tag (C); made in house
The test is described as above. The note with it: lower block, concentration printed only in upper block: V 0.300, VII 0.210; IV, VIII, XI, XXI, XX, XVIII, XVI, XV, XIV 0.200; others 1.000 mM. How it is done: as §1, §2, §7, §6

For test [8], the target named is T8, SEQ ID NO 20, mutant of Zea mays bx9 glucosyl transferase (Zea mays, UniProt B4G072, A281K/A334K/F21Y/L194V/M279F/S117V).
T8 construct: His tag (C); made in house
The note with it: lower block, concentration printed only in upper block: V 0.300, VII 0.210; IV, VIII, XI, XXI, XX, XVIII, XVI, XV, XIV 0.200; others 1.000 mM. How it is done: as §1
as §2, with “herbicide.” for “herbicide. Typically, 300 pmol of UDP corresponds to a Relative Luminescence Unit (RLU) reading of about 1.5E7 and the response curve between 0 and 600 pmol is fitted to a polynomial function (see for example FIG. 2).”
as §3, §4
All of these proteins were C-terminally his-tagged, expressed and purified as described in Example 1. Assays were run and analyzed as described in example 1.

Turning to `C[C@H]1C(O)N(c2cc(C(F)(F)F)ccn2)C(=O)N1C` (stereo partly shown) [XXIV], the Activity was determined as 0.001 pmol/sec/pmol enzyme in test [1]; 0.528 pmol/sec/pmol enzyme in test [2]; 1.154 pmol/sec/pmol enzyme in test [3]; 0.908 pmol/sec/pmol enzyme in test [4]; 0.982 pmol/sec/pmol enzyme in test [5]; 1.358 pmol/sec/pmol enzyme in test [6]. Also, the Activity in test [7] was 0.816 pmol/sec/pmol enzyme; in test [8] it was 1.462 pmol/sec/pmol enzyme.
`CN1CC(O)N(c2cc(C(F)(F)F)ncn2)C1=O` (stereo not shown) [XXV]: the Activity worked out at 0.000 pmol/sec/pmol enzyme in test [1]; 0.106 pmol/sec/pmol enzyme in test [2]; 0.170 pmol/sec/pmol enzyme in test [3]; 0.458 pmol/sec/pmol enzyme in test [4]; 0.553 pmol/sec/pmol enzyme in test [5]; 0.581 pmol/sec/pmol enzyme in test [6]. The Activity in test [7] turned out to be 0.449 pmol/sec/pmol enzyme; in test [8] it was 0.758 pmol/sec/pmol enzyme.
Regarding `CN1CC(O)N(c2cc(C(C)(C)C)c(Cl)nn2)C1=O` (stereo not shown) [III], the Activity in test [1] was 0.001 pmol/sec/pmol enzyme; in test [2], 0.032 pmol/sec/pmol enzyme; in test [3], 0.020 pmol/sec/pmol enzyme; in test [4] it was 0.144 pmol/sec/pmol enzyme; in test [5], 0.170 pmol/sec/pmol enzyme; in test [6] it was 0.097 pmol/sec/pmol enzyme. Also, the Activity in test [7] is reported as 0.066 pmol/sec/pmol enzyme; in test [8], 0.144 pmol/sec/pmol enzyme.
What is called kcat is the maximal rate divided by the concentration of active sites. For `CN1CC(O)N(c2nnc(C(C)(C)C)s2)C1=O` (stereo not shown) [IX], in test [1], the kcat stood at 0.036 s⁻¹. For the same molecule, the Activity was 0.017 pmol/sec/pmol enzyme in test [1]; 0.035 pmol/sec/pmol enzyme in test [2]; 0.012 pmol/sec/pmol enzyme in test [3]; 0.071 pmol/sec/pmol enzyme in test [4]; 0.115 pmol/sec/pmol enzyme in test [5]; 0.070 pmol/sec/pmol enzyme in test [6]. Moreover, the Activity amounted to 0.013 pmol/sec/pmol enzyme in test [7] and 0.068 pmol/sec/pmol enzyme in test [8].
For `CON1C(=O)N(c2cc(C(F)(F)F)c(Cl)cn2)C(O)C1C` (stereo not shown) [XXI], the kcat in test [1] is 0.0001 s⁻¹. The Activity in test [1] is 0.000 pmol/sec/pmol enzyme; in test [2] it was 0.919 pmol/sec/pmol enzyme; in test [3], 1.827 pmol/sec/pmol enzyme; in test [4], 1.714 pmol/sec/pmol enzyme; in test [5] it was 1.524 pmol/sec/pmol enzyme; in test [6], 1.534 pmol/sec/pmol enzyme. The Activity in test [7] came to 1.746 pmol/sec/pmol enzyme; in test [8], 1.457 pmol/sec/pmol enzyme.
`CC1C(=O)N(c2cc(C(F)(F)F)n(C)n2)C(O)[C@@H]1C` (stereo partly shown) [XVII]: the Activity in test [1] is recorded as −0.001 pmol/sec/pmol enzyme; in test [2], 0.083 pmol/sec/pmol enzyme; in test [3], 0.195 pmol/sec/pmol enzyme; in test [4] it was 0.134 pmol/sec/pmol enzyme; in test [5] it was 0.237 pmol/sec/pmol enzyme; in test [6], 0.331 pmol/sec/pmol enzyme. Further, the Activity in test [7] was 0.096 pmol/sec/pmol enzyme; in test [8], 0.402 pmol/sec/pmol enzyme.
As for `C[C@@H]1C(O)N(c2noc(C(C)(C)C)c2C#N)C(=O)[C@@H]1C` (stereo partly shown) [XIII], the Activity in test [1] is −0.001 pmol/sec/pmol enzyme; in test [2], 0.020 pmol/sec/pmol enzyme; in test [3] it was 0.040 pmol/sec/pmol enzyme; in test [4] it was 0.073 pmol/sec/pmol enzyme; in test [5], 0.051 pmol/sec/pmol enzyme; in test [6], 0.095 pmol/sec/pmol enzyme. Moreover, the figures for the Activity in test [7] and in test [8] were 0.034 pmol/sec/pmol enzyme and 0.143 pmol/sec/pmol enzyme, respectively.
